According to patent US20200061215A1, “MALTOTRIOSE-BASED PROBES FOR FLUORESCENCE AND PHOTOACOUSTIC IMAGING OF BACTERIA” (The Board of Trustees of the Leland Stanford Junior …, priority 2018, published 2020):

How the values were obtained:
[1] = tested on: E. coli; assay: Bacteria competition assay with 3H-maltose; type: cell-based; details: test compound 1 mM, 1 hr at 37° C., then 3H-maltose 30 min
Method: A competition binding assay between the synthesized derivatives and ^3H-maltose that is taken up in bacteria by the ABC transporter, was conducted.
Aliquots of 10^8 colony forming units (CFU) of E. coli were first incubated with test compounds (1 mM) for 1 hr at 37° C. After the first incubation, the bacteria culture was centrifuged at 10,000 rpm for 5 min and pellet washed with 1×HBSS three times. Pellets were suspended in a solution of ^3H-maltose (1 μCi in 200 μL HBSS (1×); American Radiolabeled Chemicals, Inc., USA) and incubated for 30 min at 37° C. Aliquots were centrifuged and washed with 1×HBSS three times before lysing in a bacterial lysis buffer (BugBuster, EMD, Billerica Mass. USA). Activity in bacteria lysates was then counted in a […] and protein concentration determined using a bicinchoninic acid (BCA) assay (Pierce, Thermo Fisher Scientific). Test compounds included maltose as a positive control, azide-1-maltotriose/maltohexose and Cy7-1-maltotriose/maltohexose. In addition, aliquots incubated with only ^3H-maltose were also included to assess normal uptake. Results are shown as counts per minute (cpm) normalized to protein content (μg of protein) per sample (n=3 per study).

[2] = Stability in PBS; type: physicochemical; details: 37° C., up to 24 hr
Method: Compound 3a or 3b (100 μM) was incubated in either PBS (1×), murine, human, or rat plasma at 37° C. for up to 24 h. At each time point (0, 2, 4, 10 and 24 h), a 100 μL aliquot of the mixture was taken and added to an ice-cold acetonitrile solution (200 μL) and vortexed for 10 seconds. Samples were then centrifuged and the supernatant analyzed on the analytical HPLC column (HPLC method). […] Monitoring was at 750 nm and the area of any observed peak was assessed in each HPLC chromatogram. Bar plot representation of the compound stability is shown as % intact where

[3] = tested on: S. aureus-infected wound; assay: Fluorescence and bioluminescence imaging in S. aureus wound-infection murine model; type: in vivo, mice; details: treated group, vancomycin for 7 days
Method: Female CD1 or SKH1 elite mice, 6-8 weeks old were anesthetized by isoflurane inhalation (2-3%). A small wound on the upper or lower back of the mice was formed using a sharp pair of scissors. 10^8 CFU, 10^6 CFU, or 10^4 CFU Staphylococcus aureus in 20 μL saline was inoculated into a small pocket subcutaneously before sealing the wound with Vetbond adhesive (1469SB; 3M).
After subcutaneous inoculation of 10^8 CFU (n=5), 10^6 CFU (n=3) and 10^4 CFU (n=3) of S. aureus in the wound, Cy7-1-maltotriose (5 nmol in 2% DMSO/saline, 100 μL injection) was injected via the tail vein. To insure no other infections occur, a daily dose of kanamycin (800 mg/kg) was given to the mice intramuscularly. Fluorescence and bioluminescence images were then captured at 5 and 20 hr post injection of the probe. Image analysis was conducted using Living Image® software.
Fluorescence and Bioluminescence Imaging: After subcutaneous inoculation of 10^6 CFU (n=9) of kanamycin-resistant S. aureus in the wound, mice were administered kanamycin (800 mg/kg) intramuscularly once daily to insure no other bacterial infections occur. Two days after surgery, Cy7-1-maltotriose (10 nmol in 2% DMSO/saline, 200 μL injection) was injected via the tail vein and bioluminescence and fluorescence imaging were performed at 19, 45, 69, 93 and 144 hrs post injection. […]

[4] = Plasma stability, human plasma; type: in vitro ADME; details: 37° C.
Method: Samples were then centrifuged and the supernatant analyzed on the analytical HPLC column (HPLC method). […] Monitoring was at 750 nm and the area of any observed peak was assessed in each HPLC chromatogram.

Molecule | 3H-maltose uptake in E. coli when pre-incubated with test compound [1] | stability in PBS [2] | S. aureus infection in wound after treatment (FLI image, confirmed by BLI) [3] | degradation in human plasma [4]
OC[C@H]1O[C@H](O[C@H]2[C@H](O)[C@@H](O)C(O)O[C@@H]2CO)[C@H](O)[C@@H](O)[C@@H]1O (mixture of isomers) [maltose] | significant reduction |  |  | 
OC[C@H]1O[C@H](O[C@H]2[C@H](O)[C@@H](O)[C@@H](O[C@H]3[C@H](O)[C@@H](O)[C@@H](O[C@H]4[C@H](O)[C@@H](O)[C@@H](O[C@H]5[C@H](O)[C@@H](O)[C@@H](O[C@H]6[C@H](O)[C@@H](O)C(O)O[C@@H]6CO)O[C@@H]5CO)O[C@@H]4CO)O[C@@H]3CO)O[C@@H]2CO)[C@H](O)[C@@H](O)[C@@H]1O (stereo partly shown) [maltohexose] | significant reduction | stable |  | 
CN[C@H](CC(C)C)C(=O)N[C@H]1C(=O)N[C@@H](CC(N)=O)C(=O)N[C@H]2C(=O)N[C@H]3C(=O)N[C@H](C(=O)N[C@H](C(=O)O)c4cc(O)cc(O)c4-c4cc3ccc4O)[C@H](O)c3ccc(c(Cl)c3)Oc3cc2cc(c3O[C@@H]2O[C@H](CO)[C@@H](O)[C@H](O)[C@H]2O[C@H]2C[C@](C)(N)[C@H](O)[C@H](C)O2)Oc2ccc(cc2Cl)[C@H]1O [vancomycin] |  |  | complete disappearance of S. aureus infection | 
maltotriose | significant reduction | stable |  | no degradation
